{"source": "ChEMBL document CHEMBL1201862", "about": "“PubChem BioAssay data set” (2004)", "key": {"[1]": {"biological_target": "Major prion protein (Homo sapiens, UniProt P04156)", "type": "functional, cell-based"}, "[2]": {"assay": "cells"}, "[3]": {"assay": "Mycobacterium tuberculosis BioA enzyme inhibitor Measured in Biochemical System Using Plate Reader - 2163-02_Inhibitor_Dose_DryPowder_Activity."}}, "note": "Calls of active or inactive are those of the source.", "data": [{"smiles": "CCc1nc(SCC(=O)N2c3ccccc3Sc3ccccc32)c2ccccc2n1", "values": [{"measurement": "IC50", "setting": "[1]", "result": "1.84 µM (active)"}, {"measurement": "IC50", "setting": "[2]", "result": "> 138 µM (inactive)"}]}, {"smiles": "Cc1cccc(/C=C(\\CCC(=O)O)c2nc3ccccc3s2)c1", "values": [{"measurement": "AC50", "setting": "[3]", "result": "14.5 µM (active)"}]}]}
